# Where “and” joins values, the source holds several entries; their conditions need not be identical. Equal entries are not always repeated.
# Key:
# Test in all cases: MTT assay, growth inhibition by deguelin or deguelin derivatives
# Format in all cases: cell-based
# Conditions in all cases: 3 days; for % control: control = 1
# H1299 = tested on: H1299
# A549 = tested on: A549
# H460 = tested on: H460
# H596 = tested on: H596
smiles,measurement,setting,value
COc1cc2c(cc1OC)C1C(=O)c3ccc4c(c3OC1CO2)CCC(C)(C)O4 (stereo not drawn) [Drug 11],Average (MTT assay reading),"H1299; H1299, 0.01 μM",0.5019
same,"MTT assay reading, replicate well","H1299; H1299, 0.01 μM",0.573 and 0.553 and 0.567 and 0.483 and 0.493 and 0.424 and 0.42
same,% control,"H1299; H1299, 0.01 μM",0.65
same,Average (MTT assay reading),"H1299; H1299, 0.1 μM",0.2847
same,"MTT assay reading, replicate well","H1299; H1299, 0.1 μM",0.302 and 0.338 and 0.317 and 0.271 and 0.215 and 0.272 and 0.278
same,% control,"H1299; H1299, 0.1 μM",0.37
same,Average (MTT assay reading),"H1299; H1299, 0.5 μM",0.3656
same,"MTT assay reading, replicate well","H1299; H1299, 0.5 μM",0.275 and 0.579 and 0.324 and 0.32 and 0.398 and 0.294 and 0.369
same,% control,"H1299; H1299, 0.5 μM",0.48
same,Average (MTT assay reading),"H1299; H1299, 1 μM",0.2179
same,"MTT assay reading, replicate well","H1299; H1299, 1 μM",0.157 and 0.202 and 0.236 and 0.233 and 0.217 and 0.262 and 0.218
same,% control,"H1299; H1299, 1 μM",0.28
same,Average (MTT assay reading),"A549; A549, 0.01 μM",0.7456
same,"MTT assay reading, replicate well","A549; A549, 0.01 μM",0.779 and 0.766 and 0.723 and 0.736 and 0.77 and 0.75 and 0.695
same,% control,"A549; A549, 0.01 μM",1.29
same,Average (MTT assay reading),"A549; A549, 0.1 μM",0.3701
same,"MTT assay reading, replicate well","A549; A549, 0.1 μM",0.343 and 0.313 and 0.358 and 0.362 and 0.405 and 0.375 and 0.435
same,% control,"A549; A549, 0.1 μM",0.64
same,Average (MTT assay reading),"A549; A549, 0.5 μM",0.4303
same,"MTT assay reading, replicate well","A549; A549, 0.5 μM",0.355 and 0.444 and 0.514 and 0.418 and 0.47 and 0.413 and 0.398
same,% control,"A549; A549, 0.5 μM",0.75
same,Average (MTT assay reading),"A549; A549, 1 μM",0.345
same,"MTT assay reading, replicate well","A549; A549, 1 μM",0.303 and 0.302 and 0.313 and 0.359 and 0.422 and 0.316 and 0.4
same,% control,"A549; A549, 1 μM",0.60
same,Average (MTT assay reading),"H460; H460, 0.01 μM",0.6664
same,"MTT assay reading, replicate well","H460; H460, 0.01 μM",0.67 and 0.672 and 0.578 and 0.697 and 0.719 and 0.651 and 0.678
same,% control,"H460; H460, 0.01 μM",0.57
same,Average (MTT assay reading),"H460; H460, 0.1 μM",0.3214
same,"MTT assay reading, replicate well","H460; H460, 0.1 μM",0.352 and 0.354 and 0.375 and 0.234 and 0.26 and 0.303 and 0.372
same,% control,"H460; H460, 0.1 μM",0.27
same,Average (MTT assay reading),"H460; H460, 0.5 μM",0.3358
same,"MTT assay reading, replicate well","H460; H460, 0.5 μM",0.372 and 0.35 and 0.36 and 0.296 and 0.2577 and 0.283 and 0.432
same,% control,"H460; H460, 0.5 μM",0.29
same,Average (MTT assay reading),"H460; H460, 1 μM",0.3296
same,"MTT assay reading, replicate well","H460; H460, 1 μM",0.314 (2×) and 0.376 and 0.344 and 0.302 and 0.291 and 0.366
same,% control,"H460; H460, 1 μM",0.28
same,Average (MTT assay reading),"H596; H596, 0.01 μM",1.262
same,"MTT assay reading, replicate well","H596; H596, 0.01 μM",1.286 and 1.422 and 1.376 and 1.041 and 1.247 and 1.293 and 1.168
same,% control,"H596; H596, 0.01 μM",0.76
same,Average (MTT assay reading),"H596; H596, 0.1 μM",0.6487
same,"MTT assay reading, replicate well","H596; H596, 0.1 μM",0.677 and 0.894 and 0.729 and 0.59 and 0.476 and 0.579 and 0.596
same,% control,"H596; H596, 0.1 μM",0.39
same,Average (MTT assay reading),"H596; H596, 0.5 μM",0.4131
same,"MTT assay reading, replicate well","H596; H596, 0.5 μM",0.469 and 0.448 and 0.439 and 0.322 and 0.282 and 0.424 and 0.508
same,% control,"H596; H596, 0.5 μM",0.25
same,Average (MTT assay reading),"H596; H596, 1 μM",0.4389
same,"MTT assay reading, replicate well","H596; H596, 1 μM",0.385 and 0.377 and 0.447 and 0.585 and 0.404 and 0.429 and 0.445
same,% control,"H596; H596, 1 μM",0.26
COc1cc2c(cc1OC)C1C(=O)c3ccc4c(c3OC1CO2)CC([Se]c1ccccc1)C(C)(C)O4 (stereo not drawn) [Drug 12],Average (MTT assay reading),"H1299; H1299, 0.01 μM",0.5509
same,"MTT assay reading, replicate well","H1299; H1299, 0.01 μM",0.513 and 0.438 and 0.626 and 0.426 and 0.609 and 0.729 and 0.515
same,% control,"H1299; H1299, 0.01 μM",0.72
same,Average (MTT assay reading),"H1299; H1299, 0.1 μM",0.4999
same,"MTT assay reading, replicate well","H1299; H1299, 0.1 μM",0.514 and 0.55 and 0.568 and 0.409 and 0.465 and 0.466 and 0.527
same,% control,"H1299; H1299, 0.1 μM",0.65
same,Average (MTT assay reading),"H1299; H1299, 0.5 μM",0.628
same,"MTT assay reading, replicate well","H1299; H1299, 0.5 μM",0.637 and 0.549 and 0.636 and 0.614 and 0.847 and 0.655 and 0.458
same,% control,"H1299; H1299, 0.5 μM",0.82
same,Average (MTT assay reading),"H1299; H1299, 1 μM",0.4001
same,"MTT assay reading, replicate well","H1299; H1299, 1 μM",0.434 and 0.41 and 0.413 and 0.451 and 0.378 and 0.357 and 0.358
same,% control,"H1299; H1299, 1 μM",0.52
same,Average (MTT assay reading),"A549; A549, 0.01 μM",0.6226
same,"MTT assay reading, replicate well","A549; A549, 0.01 μM",0.58 and 0.633 and 0.616 and 0.636 and 0.715 and 0.577 and 0.601
same,% control,"A549; A549, 0.01 μM",1.08
same,Average (MTT assay reading),"A549; A549, 0.1 μM",0.6147
same,"MTT assay reading, replicate well","A549; A549, 0.1 μM",0.604 and 0.545 and 0.597 and 0.519 and 0.606 and 0.719 and 0.713
same,% control,"A549; A549, 0.1 μM",1.06
same,Average (MTT assay reading),"A549; A549, 0.5 μM",0.5669
same,"MTT assay reading, replicate well","A549; A549, 0.5 μM",0.533 and 0.614 and 0.532 and 0.584 and 0.567 and 0.553 and 0.585
same,% control,"A549; A549, 0.5 μM",0.98
same,Average (MTT assay reading),"A549; A549, 1 μM",0.5701
same,"MTT assay reading, replicate well","A549; A549, 1 μM",0.534 and 0.536 and 0.557 and 0.571 and 0.586 (2×) and 0.621
same,% control,"A549; A549, 1 μM",0.99
same,Average (MTT assay reading),"H460; H460, 0.01 μM",0.7451
same,"MTT assay reading, replicate well","H460; H460, 0.01 μM",0.763 and 0.753 and 0.691 and 0.648 and 0.765 and 0.774 and 0.822
same,% control,"H460; H460, 0.01 μM",0.64
same,Average (MTT assay reading),"H460; H460, 0.1 μM",0.721
same,"MTT assay reading, replicate well","H460; H460, 0.1 μM",0.603 and 0.593 and 0.691 and 0.781 and 0.732 and 0.815 and 0.832
same,% control,"H460; H460, 0.1 μM",0.62
same,Average (MTT assay reading),"H460; H460, 0.5 μM",0.7127
same,"MTT assay reading, replicate well","H460; H460, 0.5 μM",0.621 and 0.714 and 0.653 and 0.739 and 0.77 and 0.758 and 0.734
same,% control,"H460; H460, 0.5 μM",0.61
same,Average (MTT assay reading),"H460; H460, 1 μM",0.7406
same,"MTT assay reading, replicate well","H460; H460, 1 μM",0.709 and 0.659 and 0.698 and 0.79 and 0.717 and 0.805 and 0.806
same,% control,"H460; H460, 1 μM",0.63
same,Average (MTT assay reading),"H596; H596, 0.01 μM",1.421
same,"MTT assay reading, replicate well","H596; H596, 0.01 μM",1.468 and 1.111 and 1.465 and 1.374 and 1.701 and 1.481 and 1.344
same,% control,"H596; H596, 0.01 μM",0.86
same,Average (MTT assay reading),"H596; H596, 0.1 μM",1.683
same,"MTT assay reading, replicate well","H596; H596, 0.1 μM",1.911 and 1.663 and 1.92 and 1.666 and 1.398 and 1.603 and 1.623
same,% control,"H596; H596, 0.1 μM",1.01
same,Average (MTT assay reading),"H596; H596, 0.5 μM",1.737
same,"MTT assay reading, replicate well","H596; H596, 0.5 μM",1.686 and 1.82 and 1.177 and 1.899 and 1.872 and 2.048 and 1.655
same,% control,"H596; H596, 0.5 μM",1.05
same,Average (MTT assay reading),"H596; H596, 1 μM",1.531
same,"MTT assay reading, replicate well","H596; H596, 1 μM",1.143 and 1.448 and 1.604 and 1.637 and 1.497 and 1.557 and 1.828
same,% control,"H596; H596, 1 μM",0.92
